Experimental data as given in PMC6104605, “Discovery of new chromen-4-one derivatives as telomerase inhibitors through regulating expression of dyskerin” (Journal of Enzyme Inhibition and Medicinal Chemistry, 2018).
Read-outs that look alike come from different tables or passages of the source.

Columns and labels:
[1] = test system: human cervical cancer cell Hela; test: MTT anticancer assay, Hela; type: cell-based; conditions: read-out: IC50 Hela
Procedure: (§1) The MTT was purchased from Sigma. Cell Cycle Analysis Kit and Apoptosis Analysis Kit were purchased from Bestbio (China). Mitochondrial membrane potential assay kit with JC-1 was purchased from Beyotime (China). All the materials were used as received without further purification unless noted specifically. The cell culture was maintained on DMEM medium (Hyclone, US) supplemented with 10% fetal bovine serum (Sijiqing, China), 100 U/mL penicillin and 100 µg/mL streptomycin in 25-cm^2 culture flasks at 37 °C humidified atmosphere with 5% CO2. Drugs were dissolved in DMSO and filtered through 0.22-µm pore-size filter units before addition to cell line appropriate media. When tumor cells were grown to log phase, diluting to 5 × 10^4 cells mL^−1 with the complete medium, 100 µL of the obtained cell suspension was added to each well of 96-well culture plates. The subsequent incubation was performed at 37 °C, 5% CO2 atmosphere for 48 h before subjecting to anti-proliferation assessment. After 48-h exposure period, 20 µL of PBS containing 5 mg·mL^−1 of MTT was added to each well. After 4 h, the medium was replaced by 150 µL DMSO to dissolve the purple formazan crystals produced. […] The data represented the mean of three experiments in triplicate and were expressed as means ± SD.

[2] = test system: human liver cancer cell SMMC-7721; test: MTT anticancer assay, SMMC-7721; type: cell-based; conditions: 48 h exposure, mean ± SD
Procedure: (§2) The MTT was purchased from Sigma. Cell Cycle Analysis Kit and Apoptosis Analysis Kit were purchased from Bestbio (China). Mitochondrial membrane potential assay kit with JC-1 was purchased from Beyotime (China). All the materials were used as received without further purification unless noted specifically. The cell culture was maintained on DMEM medium (Hyclone, US) supplemented with 10% fetal bovine serum (Sijiqing, China), 100 U/mL penicillin and 100 µg/mL streptomycin in 25-cm^2 culture flasks at 37 °C humidified atmosphere with 5% CO2. Drugs were dissolved in DMSO and filtered through 0.22-µm pore-size filter units before addition to cell line appropriate media. When tumor cells were grown to log phase, diluting to 5 × 10^4 cells mL^−1 with the complete medium, 100 µL of the obtained cell suspension was added to each well of 96-well culture plates. The subsequent incubation was performed at 37 °C, 5% CO2 atmosphere for 48 h before subjecting to anti-proliferation assessment. After 48-h exposure period, 20 µL of PBS containing 5 mg·mL^−1 of MTT was added to each well. After 4 h, the medium was replaced by 150 µL DMSO to dissolve the purple formazan crystals produced. The absorbance at 492 nm of each well was measured on an ELISA plate reader. The data represented the mean of three experiments in triplicate and were expressed as means ± SD. The IC50 value was defined as the concentration at which 50% of the cells could survive. The following human tumor cell lines were used in the assay: human gastric cancer cells SGC-7901, human liver cancer cell SMMC-7721 and HepG2, human cervical cancer cell Hela and human glioma cell U87.

[3] = test system: human gastric cancer cells SGC-7901; test: MTT anticancer assay, SGC-7901; type: cell-based; conditions: for IC50: Homo sapiens, SGC-7901, MTT, 48 h exposure, mean ± SD
Procedure: as §1

[4] = test system: human glioma cell U87; test: MTT anticancer assay, U87; type: cell-based; conditions: 48 h exposure, mean ± SD, dash = footnote d 'None'
Procedure: as §2

[5] = test system: human liver cancer cell HepG2; test: MTT anticancer assay, HepG2; type: cell-based; conditions: 48 h exposure, mean ± SD, dash = footnote d 'None'
Procedure: as §2

[6] = test system: human normal gastric mucosa cell (GES-1); test: Proliferative inhibition of human normal cell (MTT); type: cell-based
Description: In order to determine the selective cell toxicity of selected compounds. We subsequently conducted a proliferative inhibition assay with human normal gastric mucosa cell (GES-1).

[7] = biological target: T1, telomerase (Homo sapiens, UniProt O14746); test: Telomerase activity assay (TRAP-PCR-ELISA); type: biochemical; conditions: SGC-7901 cells extracts, 24-h treatment, mean ± SD
T1 construct: endogenous in cells; host or cells: SGC-7901
Procedure: Inhibit of telomerase activity was tested using the TRAP-PCR-ELISA assay. In detail, the SGC-7901 cells were firstly maintained in DMEM medium (GIBCO, New York) supplemented with 10% fetal bovineserum (GIBCO, NewYork), streptomycin (0.1 mg/mL) and penicillin (100 IU/mL) at 37 °C in a humidified atmosphere containing 5% CO2. After trypsinisation, 5 × 10^4 cultured cells in logarithmic growth were seeded into T25 flasks (Corning, New York) and cultured to allow to adherence. The cells were then incubated with Staurosporine (Santa Cruz, Santa Cruz) and the drugs with a series of concentration as 60, 20, 6.67, 2.22, 0.74, 0.25 and 0.082 l g/mL, respectively. After 24-h treatment, the cells were harvested by cell scraper orderly following by washed once with PBS. The cells were lysed in 150 µL RIPA cell lysis buffer (Santa Cruz, Santa Cruz) and incubated on ice for 30 min. The cellular supernatants were obtained via centrifugation at 12,000 g for 20 min at 4 °C and stored at −80 °C. The TRAP-PCR-ELISA assay was performed using a telomerase detection kit (Roche, Basel, Switzerland) according to the manufacturer’s protocol. In brief, 2 µL of cell extracts were mixed with 48 µL TRAP reaction mixtures. PCR was then initiated at 94 °C, 120 s for predenaturation and performed using 35 cycles each consisting of 94 °C for 30 s, 50 °C for 30 s, 72 °C for 90 s. Then 20 µL of PCR products were hybridised to a digoxigenin (DIG)-labeled telomeric repeat specific detection probe. And the PCR products were immobilised via the biotin-labeled primer to a streptavidin-coated microtiter plate subsequently. The immobilised DNA fragment were detected with a peroxidase-conjugated anti-DIG antibody and visualised following addition of the stop regent. The microtitre plate was assessed on TECAN Infinite M200 microplate reader (Mannedorf, Switzerland) at a wavelength of 490 nm, and the final value were presented as mean ± SD.

[8] = Octanol water partition coefficient, shake flask; type: physicochemical; conditions: octanol/PBS (pH 7.4), pH 7.4, shake flask, octanol/PBS pH 7.4, 37 °C, read-out: Log p (octanole water partition coefficient)
Procedure: Octanole water partition coefficients was measured by the method of shake flask with slight modification. The aqueous phase was replaced by PBS (pH 7.4). First, the phase of octanol and the aqueous were saturated with each other. Then, the mixture containing title compounds was shaken at 37 °C. After 24 h, the mixture was centrifuged at 4000 rpm for 30 min, followed by the measured with ultraviolet spectrophotometer. At last, logP values were calculated.

[9] = GES1, MTT, human normal gastric mucosa cell, read-out: GES-1 IC50

T1 sequence (O14746 whole entry): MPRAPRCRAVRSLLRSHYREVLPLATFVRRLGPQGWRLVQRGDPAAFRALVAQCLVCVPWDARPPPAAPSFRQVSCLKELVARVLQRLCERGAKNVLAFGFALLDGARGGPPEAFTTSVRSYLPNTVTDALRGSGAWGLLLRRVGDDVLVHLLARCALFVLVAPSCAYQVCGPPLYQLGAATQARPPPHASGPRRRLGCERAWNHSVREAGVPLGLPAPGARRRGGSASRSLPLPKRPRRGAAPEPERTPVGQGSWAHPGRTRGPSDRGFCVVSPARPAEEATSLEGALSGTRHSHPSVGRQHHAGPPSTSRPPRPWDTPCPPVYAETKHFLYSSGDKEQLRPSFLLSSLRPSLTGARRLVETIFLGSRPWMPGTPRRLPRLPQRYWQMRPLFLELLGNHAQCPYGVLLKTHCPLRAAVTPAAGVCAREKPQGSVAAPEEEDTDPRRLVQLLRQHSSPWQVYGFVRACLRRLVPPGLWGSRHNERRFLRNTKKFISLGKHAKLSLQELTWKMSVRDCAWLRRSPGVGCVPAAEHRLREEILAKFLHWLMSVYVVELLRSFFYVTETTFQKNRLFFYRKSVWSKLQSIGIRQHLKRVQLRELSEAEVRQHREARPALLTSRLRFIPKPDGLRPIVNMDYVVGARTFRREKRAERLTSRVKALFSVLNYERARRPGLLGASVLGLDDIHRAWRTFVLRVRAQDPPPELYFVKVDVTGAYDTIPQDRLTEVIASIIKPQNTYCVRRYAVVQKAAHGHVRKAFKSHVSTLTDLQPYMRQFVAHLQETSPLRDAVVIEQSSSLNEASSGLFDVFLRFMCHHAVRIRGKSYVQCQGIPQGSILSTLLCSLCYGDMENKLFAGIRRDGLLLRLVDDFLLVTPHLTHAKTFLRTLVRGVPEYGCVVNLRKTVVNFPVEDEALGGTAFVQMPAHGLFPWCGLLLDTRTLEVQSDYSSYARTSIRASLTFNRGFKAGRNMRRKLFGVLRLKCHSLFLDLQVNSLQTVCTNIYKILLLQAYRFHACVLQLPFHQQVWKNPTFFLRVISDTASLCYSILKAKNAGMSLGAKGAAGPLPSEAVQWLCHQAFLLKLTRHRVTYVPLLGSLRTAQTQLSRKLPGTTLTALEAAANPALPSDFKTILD
T1 sequence (O60832 whole entry partner): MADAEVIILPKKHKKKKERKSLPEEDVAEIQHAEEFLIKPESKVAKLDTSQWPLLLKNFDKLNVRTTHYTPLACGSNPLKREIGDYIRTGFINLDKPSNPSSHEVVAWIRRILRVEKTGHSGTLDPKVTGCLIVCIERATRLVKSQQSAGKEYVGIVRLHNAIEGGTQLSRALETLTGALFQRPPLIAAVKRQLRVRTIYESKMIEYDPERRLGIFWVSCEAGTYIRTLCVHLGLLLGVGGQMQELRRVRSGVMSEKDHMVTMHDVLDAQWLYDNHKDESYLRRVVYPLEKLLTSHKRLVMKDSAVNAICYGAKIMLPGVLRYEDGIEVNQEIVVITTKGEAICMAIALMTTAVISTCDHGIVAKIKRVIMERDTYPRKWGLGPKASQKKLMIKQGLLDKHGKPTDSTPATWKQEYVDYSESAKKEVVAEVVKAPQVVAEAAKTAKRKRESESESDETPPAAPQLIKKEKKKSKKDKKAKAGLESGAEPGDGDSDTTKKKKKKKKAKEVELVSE
T1 sequence (Q9NX24 whole entry partner): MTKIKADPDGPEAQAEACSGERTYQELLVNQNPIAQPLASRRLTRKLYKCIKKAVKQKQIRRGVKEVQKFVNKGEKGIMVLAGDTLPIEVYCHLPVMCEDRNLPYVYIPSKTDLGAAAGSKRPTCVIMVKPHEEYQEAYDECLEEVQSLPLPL
T1 sequence (Q9NPE3 whole entry partner): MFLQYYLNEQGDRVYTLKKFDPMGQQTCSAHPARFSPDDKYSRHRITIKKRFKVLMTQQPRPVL
T1 sequence (Q9NY12 whole entry partner): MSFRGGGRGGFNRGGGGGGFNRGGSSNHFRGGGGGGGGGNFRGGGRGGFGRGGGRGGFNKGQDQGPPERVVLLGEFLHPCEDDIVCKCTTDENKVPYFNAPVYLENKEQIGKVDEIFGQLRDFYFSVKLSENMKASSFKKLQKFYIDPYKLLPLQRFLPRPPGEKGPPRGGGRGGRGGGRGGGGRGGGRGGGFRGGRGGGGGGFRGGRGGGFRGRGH

For `COc1cc(OC)c2c(=O)c(OCCCCN3CCN(C(=O)c4ccc(F)cc4F)CC3)c(-c3cc(OC)c(OC)c(OC)c3)oc2c1` [Compound 5a], the IC50 ([1]; MTT, 48 h exposure, mean ± SD) was 25.5 ± 1.02 µM, the IC50 [2] was 28 ± 0.98 µM and the IC50 [3] was 16.6 ± 1.32 µM. The IC50 [4] was 16.6 ± 1.95 µM, the IC50 [5] was 33.4 ± 1.56 µM and the IC50 [6, 9] was 4180 ± 600 µM. For the same compound, the IC50 [7] was 11.3 ± 0.99 µM.

`COc1cc(OC)c2c(=O)c(OCCCCN3CCN(C(=O)c4ccc(Cl)cc4)CC3)c(-c3cc(OC)c(OC)c(OC)c3)oc2c1` [Compound 5h] gave an IC50 ([1]; MTT, 48 h exposure, mean ± SD) of 22.4 ± 0.87 µM, an IC50 [2] of 14.1 ± 1.27 µM and an IC50 [3] of 9.22 ± 1 µM. For the same compound, the IC50 [4] was 25.6 ± 1.4 µM and the IC50 [5] was 35.3 ± 1.97 µM.

In the case of `COc1cc(OC)c2c(=O)c(OCCCCN3CCN(C(=O)c4ccccc4)CC3)c(-c3cc(OC)c(OC)c(OC)c3)oc2c1` [Compound 5j], the IC50 ([1]; MTT, 48 h exposure, mean ± SD) is reported as 8.3 ± 0.3 µM, the IC50 [2] is reported as 7.29 ± 0.82 µM and the “activity against SGC-7901 cells (in words)” value (“activity” below) [3] is reported as “good activity”. For the same compound, the IC50 [3] was 7.56 ± 1.01 µM, the IC50 [4] was 20.3 ± 1.25 µM and the IC50 [5] was greater than 60 µM. For the same compound, the logP at 24 h [8] was 3.01.

In the case of `COc1cc(OC)c2c(=O)c(OCCCCN3CCN(C(=O)c4cc([N+](=O)[O-])cc([N+](=O)[O-])c4)CC3)c(-c3cc(OC)c(OC)c(OC)c3)oc2c1` [Compound 5k], the IC50 ([1]; MTT, 48 h exposure, mean ± SD) is reported as 2.94 ± 0.25 µM, the IC50 [2] is reported as 4.01 ± 0.38 µM and the “activity” value [3] is reported as “good activity”. It also gave an IC50 [3] of 5.12 ± 0.5 µM, an IC50 [4] of 8.14 ± 0.22 µM and an IC50 [5] of 21.2 ± 1.53 µM. The IC50 ([6]; Homo sapiens, GES1, read-out: GES-1 IC50) was 2550 ± 380 µM and the IC50 [7] was 1.44 ± 0.28 µM.

`COc1cc(OC)c2c(=O)c(OCCCCN3CCN(C(=O)c4ccccc4[N+](=O)[O-])CC3)c(-c3cc(OC)c(OC)c(OC)c3)oc2c1` [Compound 5e] showed an IC50 ([1]; MTT, 48 h exposure, mean ± SD) of 25.1 ± 1.5 µM, an IC50 [2] of 31.3 ± 1.63 µM and an IC50 [3] of 13.2 ± 0.88 µM. For the same compound, the IC50 [4] was greater than 60 µM, the IC50 [5] was greater than 60 µM and the IC50 [6, 9] was 10000 ± 1220 µM. It also gave an IC50 [7] of 13.3 ± 1.25 µM.

With `COc1cccc2c1C(=O)c1c(O)c3c(c(O)c1C2=O)C[C@@](O)(C(=O)CO)C[C@@H]3O[C@H]1C[C@H](N)[C@H](O)[C@H](C)O1` [ADM, doxorubicin, reference compound] the IC50 ([1]; 48 h) was 0.21 ± 0.03 µM, the IC50 [2] was 0.81 ± 0.06 µM and the IC50 [3] was 0.98 ± 0.27 µM. It also gave an IC50 [4] of 2.24 ± 0.12 µM and an IC50 [5] of 2.87 ± 0.21 µM.

In the case of `COc1cc(OC)c2c(=O)c(OCCCCN3CCN(C(=O)c4cc(Cl)ccc4[N+](=O)[O-])CC3)c(-c3cc(OC)c(OC)c(OC)c3)oc2c1` [Compound 5l], the IC50 ([1]; MTT, 48 h exposure, mean ± SD) is reported as 3.8 ± 0.31 µM, the IC50 [2] is reported as 5.2 ± 0.87 µM and the “activity” value [3] is reported as “good activity”. It also gave an IC50 [3] of 5.81 ± 1.01 µM, an IC50 [4] of 16.2 ± 1.45 µM and an IC50 [5] of 29.1 ± 1.75 µM. It also gave a logP at 24 h [8] of 4.82.

`COc1cc(OC)c2c(=O)c(OCCCCN3CCN(C(=O)c4c(F)cccc4F)CC3)c(-c3cc(OC)c(OC)c(OC)c3)oc2c1` [Compound 5b] showed an IC50 ([1]; MTT, 48 h exposure, mean ± SD) of 11.3 ± 0.85 µM, an IC50 [2] of 17 ± 0.99 µM and an IC50 [3] of 10.5 ± 1.08 µM. For the same compound, the IC50 [4] was greater than 60 µM and the IC50 [5] was 23.4 ± 1.23 µM.

`COc1cc(OC)c2c(=O)c(OCCCCN3CCN(C(=O)c4cccc(F)c4)CC3)c(-c3cc(OC)c(OC)c(OC)c3)oc2c1` [Compound 5d] gave an IC50 ([1]; MTT, 48 h exposure, mean ± SD) of 31.4 ± 1.73 µM, an IC50 [2] of 32 ± 1.53 µM and an IC50 [3] of 18.5 ± 0.89 µM. It also gave an IC50 [4] greater than 60 µM and an IC50 [5] of 35.5 ± 1.65 µM.

In the case of `COc1cc(OC)c2c(=O)c(OCCCCN3CCN(C(=O)c4ccc([N+](=O)[O-])cc4)CC3)c(-c3cc(OC)c(OC)c(OC)c3)oc2c1` [Compound 5g], the IC50 ([1]; MTT, 48 h exposure, mean ± SD) is reported as 17 ± 1.51 µM, the IC50 [2] is reported as 23.2 ± 1.83 µM and the IC50 [3] is reported as 10.5 ± 1.01 µM. It also gave an IC50 [4] of 21.6 ± 0.9 µM and an IC50 [5] of 40.5 ± 1.95 µM.

With `COc1cc(OC)c2c(=O)c(OCCCCN3CCN(C(=O)c4c(F)cccc4Cl)CC3)c(-c3cc(OC)c(OC)c(OC)c3)oc2c1` [Compound 5c] the IC50 ([1]; MTT, 48 h exposure, mean ± SD) was 9.77 ± 0.62 µM, the IC50 [2] was 15.9 ± 1.01 µM and the IC50 [3] was 9.31 ± 1.05 µM. The IC50 [4] was 25.4 ± 1.55 µM and the IC50 [5] was 28 ± 1.84 µM.

In the case of `COc1cc(OC)c2c(=O)c(OCCCCN3CCN(C(=O)c4ccc(C(F)(F)F)cc4)CC3)c(-c3cc(OC)c(OC)c(OC)c3)oc2c1` [Compound 5f], the IC50 ([1]; MTT, 48 h exposure, mean ± SD) is reported as 14.4 ± 0.8 µM, the IC50 [2] is reported as 24.2 ± 1.44 µM and the “activity” value [3] is reported as “good activity”. It also gave an IC50 [3] of 6.97 ± 0.85 µM, an IC50 [4] of 18 ± 0.66 µM and an IC50 [5] of 37.4 ± 1.69 µM. It also gave a logP at 24 h [8] of 3.35 and an IC50 [6, 9] of 2980 ± 550 µM.
